≈ marks a conversion by molar mass, not a printed value.

Data set [1] relates to Human alphaherpesvirus 2. The experiment in a line: Antiviral activity against Herpes simplex virus 2 G assessed as inhibition of virus-induced cytopathic effect by cell based assay. Format: functional. Particulars: Human alphaherpesvirus 2, strain G. In general terms: Protection from cytopathic effect is a common read-out in antiviral testing.
Data set [2] concerns Human alphaherpesvirus 1. The experiment in a line: Antiviral activity against Herpes simplex virus 1 KOS assessed as inhibition of virus-induced cytopathic effect by cell based assay. Format: functional. Particulars: Human alphaherpesvirus 1, KOS.
The subject of data set [3] is Human immunodeficiency virus 2. The data set can be described thus: Antiviral activity against HIV2 infected in human CEM cells assessed as protection against virus-induced cytopathicity by giant cell formation assay. The data set is classed as functional, organism-based. Particulars: Human immunodeficiency virus 2, CCRF-CEM.
Data set [4] concerns Human immunodeficiency virus 1. The experiment in a line: Antiviral activity against HIV1 infected in human CEM cells assessed as protection against virus-induced cytopathicity by giant cell formation assay. The data set is classed as functional, organism-based. Conditions: Human immunodeficiency virus 1, CCRF-CEM.
The nature of data set [5]: Antiproliferative activity against human Molt4/C8 cells. Format: functional, cell-based. Conditions: MOLT-4.
The test system of data set [6] is Human immunodeficiency virus 2. The data set can be described thus: Antiviral activity against HIV2. Format: functional, organism-based.
Data set [7] has as its system Human immunodeficiency virus 1. The experiment in a line: Antiviral activity against HIV1. Format: functional, organism-based.
Data set [8] in a line: Antiproliferative activity against mouse L1210/0 cells. The data set is classed as functional, cell-based.
Data set [9] has as its system Vesicular stomatitis virus. The data set can be described thus: Antiviral activity against Vesicular stomatitis virus. The data set is classed as functional, organism-based.
Data set [10] deals with Vaccinia virus. The data set can be described thus: Antiviral activity against Vaccinia virus. Conditions: Orthopoxvirus vaccinia. Format: functional, organism-based.
Data set [11] concerns unidentified influenza virus. The data set can be described thus: Antiviral activity against Influenza virus. Format: functional.
Data set [12] relates to Human betaherpesvirus 5. The data set can be described thus: Antiviral activity against HCMV infected in HEL cells assessed as inhibition of virus-induced cytopathic effect after 6 days. The data set is classed as functional, organism-based. Conditions: Human betaherpesvirus 5, HEL, 144 h.
Data set [13] relates to Human immunodeficiency virus 1. The experiment in a line: Antiviral activity against HIV1 infected in human MT4 cells assessed as inhibition of virus-induced cytopathic effect. Particulars: Human immunodeficiency virus 1, MT4. The data set is classed as functional, organism-based.
Data set [14] relates to CCRF-CEM. The data set can be described thus: Growth inhibition of human CCRF-CEM cells. Format: functional, cell-based.
The subject of data set [15] is Hepatitis C virus. The data set can be described thus: Antiviral activity against Hepatitis C virus. The data set is classed as functional, organism-based, Hepacivirus hominis.
Data set [16] concerns Cytomegalovirus. The data set can be described thus: Antiviral activity against Cytomegalovirus Davis infected in HEL cells assessed as inhibition of virus plaque formation. The data set is classed as functional, organism-based. Particulars: Human betaherpesvirus 5, Davis.
In data set [17] the test system is Cytomegalovirus. The data set can be described thus: Antiviral activity against Cytomegalovirus AD169 infected in HEL cells assessed as inhibition of viral plaque formation. The data set is classed as functional, organism-based. Conditions: Human betaherpesvirus 5, AD169, HEL.
The nature of data set [18]: Cytotoxicity against HEL cells assessed as reduction in cell viability. Particulars: human. The data set is classed as cell-based.
Data set [19] is described as follows: Cytotoxicity against human CEM/0 cells assessed as reduction in cell viability. Format: cell-based, CCRF-CEM.
A short description of data set [20]: Cytotoxicity against human E6SM cells assessed as alteration in cell morphology by microscopic method. The data set is classed as cell-based.
The nature of data set [21]: Cytotoxicity against human HeLa cells assessed as alteration in cell morphology by microscopic method. The data set is classed as cell-based.
A short description of data set [22]: Cytotoxicity against African green monkey Vero cells assessed as alteration in cell morphology by microscopic method. The data set is classed as cell-based. Particulars: chlorocebus sabaeus.
A short description of data set [23]: Cytostatic activity against mouse L1210/0 cells. The data set is classed as functional, cell-based.
The test system of data set [24] is CCRF-CEM. The experiment in a line: Cytostatic activity against human CEM cells. Format: functional.
Data set [25] concerns MOLT-4. The data set can be described thus: Cytostatic activity against human Molt4/C8 cells. The data set is classed as functional, cell-based.
Data set [26] is described as follows: Cytotoxicity against African green monkey Vero cells. The data set is classed as cell-based. Conditions: chlorocebus sabaeus.
Data set [27] is described as follows: Cytotoxicity against human HeLa cells. Format: cell-based.
The nature of data set [28]: Cytotoxicity against HEL cells. Format: cell-based. Particulars: human.
The nature of data set [29]: Cytotoxicity against human E6SM cells. The data set is classed as cell-based.
Data set [30] can be described thus: Cytotoxicity against MDCK cells. Conditions: dog. The data set is classed as cell-based, Canis lupus familiaris.
A short description of data set [31]: Cytotoxicity against human CEM/0 cells. The data set is classed as cell-based, CCRF-CEM.
Data set [32] can be described thus: Binding affinity to HSV1 uracil-DNA glycosylase after 30 mins by electrophoretic mobility shift assay. Details: species or system Human alphaherpesvirus 1.
In data set [33] the test system is Influenza A virus. The data set can be described thus: Antiviral activity against Influenza A virus. Format: functional, organism-based.
Data set [34] in a line: Inhibition of Trichomonas vaginalis purine nucleoside phosphorylase using […] as substrate by xanthine oxidase coupled enzyme assay.
Data set [35] has as its target T1, Inosine-uridine preferring nucleoside hydrolase (Crithidia fasciculata, UniProt Q27546).
T1 sequence (Q27546 whole entry): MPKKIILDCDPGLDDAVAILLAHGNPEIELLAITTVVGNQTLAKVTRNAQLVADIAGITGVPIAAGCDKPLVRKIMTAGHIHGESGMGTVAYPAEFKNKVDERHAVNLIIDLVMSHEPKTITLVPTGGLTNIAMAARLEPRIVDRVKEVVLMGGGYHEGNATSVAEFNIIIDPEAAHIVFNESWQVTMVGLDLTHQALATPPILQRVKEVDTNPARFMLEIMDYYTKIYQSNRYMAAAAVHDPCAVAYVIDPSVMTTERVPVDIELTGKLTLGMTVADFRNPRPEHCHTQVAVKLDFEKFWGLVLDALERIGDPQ
The data set can be described thus: Inhibition of Crithidia fasciculata inosine-uridine nucleoside hydrolase expressed in Escherichia coli using p-nitrophenyl beta-D-ribofuranoside as substrate by xanthine oxidase coupled enzyme assay.

Data set [36] concerns the target T2, Inosine-adenosine-guanosine-nucleoside hydrolase (Trypanosoma brucei brucei, UniProt O15727).
T2 sequence (O15727 whole entry): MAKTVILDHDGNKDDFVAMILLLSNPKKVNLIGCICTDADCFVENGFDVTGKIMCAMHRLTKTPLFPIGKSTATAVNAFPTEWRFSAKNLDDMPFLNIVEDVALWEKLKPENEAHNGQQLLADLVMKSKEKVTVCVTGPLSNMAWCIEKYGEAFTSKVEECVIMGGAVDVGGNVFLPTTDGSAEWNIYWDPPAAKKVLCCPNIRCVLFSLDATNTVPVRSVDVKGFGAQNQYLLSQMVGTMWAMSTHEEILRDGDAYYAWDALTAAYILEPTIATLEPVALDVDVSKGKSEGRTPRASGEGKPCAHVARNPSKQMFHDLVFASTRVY
The experiment in a line: Inhibition of Trypanosoma brucei brucei inosine-adenosine-guanosine nucleoside hydrolase expressed in Escherichia coli.

For `Nc1nc2c(ncn2C[C@H]2C[C@H](O)[C@@H](CO)O2)c(=O)[nH]1`, the MIC in [1] and in data set [2] was 5 µg/mL (≈ 17.8 µM) in each case.

With `O=c1[nH]c(=O)n([C@H]2CCC[C@H]2CO)cc1I`, the EC50 in data set [3] and in [4] was 12.5 µg/mL (≈ 37.2 µM) throughout.

For `CC1(C)[C@@H](Cn2cnc3c(Cl)nc(N)nc32)CC[C@@]1(C)CO`, the IC50 in data set [5] was found to be 13.2 µg/mL (≈ 40.8 µM); in data set [8] it was 16.2 µg/mL (≈ 50 µM). For the same compound, the EC50 in [6] and in data set [7] was 4 µg/mL (≈ 12.4 µM) in each case.

In the case of `Cc1ccc(S(=O)(=O)OC[C@H]2OC[C@@H]3OCO[C@@H]32)cc1`, the IC50 in [9] and in data set [10] was over 400 µg/mL throughout.

Take `CC1(C)[C@@H](Cn2cnc3c(Cl)ncnc32)CC[C@@]1(C)CO`: in data set [5], the IC50 stood at 3.8 µg/mL (≈ 12.3 µM). The compound also returned an MIC in [11] of 10 µg/mL (≈ 32.4 µM).

Regarding `Nc1ncnc2c1ncn2CC1(CO)CC=CC1`, in data set [12], the EC50 came out at 78.1 µM.

In the case of `Nc1ccn(CC2(CO)CC=CC2)c(=O)n1`, the EC50 in [13] is 56.4 µM.

`Clc1ncnc2c1ncn2CC12CCC(O1)c1cc3ccccc3cc12` (centres undefined): half-maximal inhibition in data set [14] (IC50) was put at 5.73 µM. This compound showed an EC50 in data set [15] of 6.31 µM.

As for `Nc1nc(Cl)c2ncn(C[C@H]3CCC[C@H]3CO)c2n1`, the IC50 in [16] and in [17] was over 5 µg/mL in each case.

Regarding `Nc1nc(Cl)c2ncn(C[C@H]3CC[C@@H](CO)C3)c2n1`, the CC50 in [18], in [19], in [20], in data set [21] and in data set [22] was 1 µg/mL (≈ 3.55 µM) in each case.

Turning to `CC1(C)[C@@H](CO)CC[C@@]1(C)Cn1cnc2c(Cl)ncnc21`, the Activity amounted to 13 µg/mL in data set [23], 14 µg/mL in data set [24] and 9 µg/mL in data set [25].

Regarding `Nc1ncnc2c1ncn2C[C@H]1CC[C@@H](CO)C1`, the IC50 in [5] and in data set [8] was 73 µg/mL (≈ 295 µM) in each case. For the same compound, the CC50 in data set [26], in [27], in data set [28], in [29], in [30] and in [31] was 80 µg/mL (≈ 323 µM) in each case.

Turning to `O=c1ccn(C[C@H]2C[C@H](O)[C@@H](CO)O2)c(=O)[nH]1`, in data set [32], the Kd stood at 160 nM. In data set [33], this compound gave an IC50 of 94.2 µg/mL (≈ 389 µM).

Turning to `Nc1ncnc2c1ncn2C[C@@H]1N[C@H](CO)[C@@H](O)[C@H]1O`, the Ki in [34] is over 10 µM; in data set [35] it was 5.4 µM; in [36] it was 3.6 µM.

For orientation: EC50 means the concentration needed to bring the measured effect to its halfway point. In general, IC50 refers to the midpoint of a concentration-inhibition curve. As a reminder, the CC50 is the concentration at which the toxic effect on the cells reaches its halfway point. What is called Kd is the concentration at which binding is half-saturated. The Ki is the dissociation constant of the complex between target and ligand, obtained from inhibition or displacement.

The values are drawn from ChEMBL document CHEMBL3826905, “1'-Homonucleosides and their structural analogues: A review” (Eur J Med Chem, 2016).
